Values of other authors, collected in patent US8569304B2, “Active esters of N-substituted piperazine acetic acids, including isotopically enriched versions thereof” (DH Technologies Development Pte. Ltd., priority 2004, dated 2013).

Conditions: alcohol (leaving group) used to form the trifluoroacetate ester / active ester

O=C1CCC(=O)N1O [NHS, N-Hydroxysuccinimide]
pKa: 7.80
